Reference: patent US20110269799A1 (priority 2008, published 2011)
Values joined by “and” are separate entries in the source; they are usually repeats but may differ in a detail not shown here. Equal entries are not always repeated. Where two headings read alike, the source gives them in different places.

Columns and labels:
[1] = system: patients with chronic atrial fibrillation; experiment: PETRO phase 2 12-week dose finding study, dabigatran etexilate alone or with aspirin vs. warfarin; format: in vivo, human; details: 12 weeks
Description: Primary endpoints were bleeding events and changes in D-dimer. […] Minor bleeding was dose related.

[2] = system: patients with atrial fibrillation
Description: PETRO-Ex began while the PETRO study was ongoing and investigators were initially kept blinded to patient treatment group until PETRO was completed. Unblinding investigators to patient treatment was possible thereafter.
Data were summarized descriptively; no hypothesis was to be tested. Events were analyzed on the basis of the treatment at onset. Incidences were reported as number of patients with events as well as normalized to 100 patient-years on the respective treatment.
Patients who completed PETRO on 50 mg b.i.d. were switched to 150 mg q.d. upon entry in the PETRO-Ex study (N=93 patients). […] Patients who were down titrated to 50 mg q.d. based on a glomerular filtration rate<50 mL/min during PETRO were excluded from the long-term trial; patients down-titrated in other dose levels remained on the q.d. treatment at that dose.

[3] = system: patients with atrial fibrillation at risk of stroke
Description: Median follow-up was 2.0 years and the primary outcome was stroke or systemic embolism.
Patients were recruited from 951 clinical centers in 44 countries. In brief, patients were eligible if they had atrial fibrillation documented on electrocardiogram at screening or within 6 months; and at least one of the following: prior stroke or transient ischemic attack; left ventricular ejection fraction less than 40%; New York Heart Association heart failure symptoms of Class 2 or greater within 6 months; age at least 75 years; or age at least 65 years with diabetes mellitus, hypertension or coronary artery disease.
The time in therapeutic range was calculated by the method of Rosendaal (Rosendaal F R, et al., A method to determine the optimal intensity of oral anticoagulant therapy, Thromb Haemost, 1993, 69:236-239), excluding INRs from the first week and after discontinuations. […] Concomitant use of aspirin (less than 100 mg/day) or other antiplatelet agents was allowed.
Liver function testing was performed monthly during the first year of follow-up.
The primary study outcome was stroke or systemic embolism. The primary safety outcome was major hemorrhage. Secondary outcomes were stroke, systemic embolism and death. Other outcomes were myocardial infarction, pulmonary embolism, transient ischemic attacks, and hospitalizations. The primary net benefit-risk outcome was the composite of stroke, systemic embolism, pulmonary embolism, myocardial infarction, death or major hemorrhage. Stroke was defined as sudden onset of focal neurological deficit consistent with the territory of a major cerebral artery and categorized as ischemic, hemorrhagic or unspecified. Hemorrhagic transformation of ischemic stroke was not considered as hemorrhagic stroke. Intracranial hemorrhage included hemorrhagic stroke and sub-dural or sub-arachnoid hemorrhage. Systemic embolism was an acute vascular occlusion of an extremity or organ documented by imaging, surgery or autopsy. Major bleeding was defined as a reduction in hemoglobin level of at least […] or transfusion of at least 2 units of blood or symptomatic bleeding in a critical area or organ. Life-threatening bleeding was a subset of major bleeding that included fatal bleeding, symptomatic intracranial bleeding, bleeding with hemoglobin decrease of more than […] or requiring transfusion of more than 4 units of blood or requiring inotropic agents or necessitating surgery. All other bleeding was considered minor.
All primary and secondary outcome events were blindly and doubly adjudicated. An international team of adjudicators reviewed documents in local languages after blinding; or documents were translated by a independent group and blinded centrally. All transient ischemic attacks were reviewed to ensure that strokes had not been missed. To detect possible unreported events, symptom questionnaires were regularly administered to patients, and adverse events and hospitalization reports were scrutinized for unreported primary or secondary outcomes.
If maximum of the two p-values was greater than 0.025, the minimum of the two p-values must be less than 0.0125, one-sided, to claim statistical significance. All analyses were based on intention-to-treat.

[4] = individual patients with LFT abnormalities, one patient (age, sex) per table line

## [H]/N=C(/N)c1ccc(NCc2nc3cc(C(=O)N(CCC(=O)O)c4ccccn4)ccc3n2C)cc1 [Dabigatran]
[1]
  Change in D-dimer levels: comparable to warfarin
[2]; all doses
  Fatal bleeding events, rate: 0.5 % per year
[2]; [4]
  LFT abnormality ALT/ULN: >5x x ULN (4×) and >5x^# x ULN (2×) and >3x x ULN (5×) and >3x^# x ULN
  LFT abnormality AST/ULN: >5x^# x ULN (4×) and >5x x ULN (4×) and >3x x ULN (5×)
[3]; 110 mg b.i.d.
  Rate of hemorrhagic stroke: 0.12 % per year
  Stroke, Ischemic or Unspecified, Rate: 1.35 /100 Person Years
  Stroke, systemic embolism, pulmonary embolism, myocardial infarction death or major bleed (net benefit), Rate: 7.37 /100 Person Years
[3]; 110 mg vs. Warfarin
  Extracranial Bleeding, RR: 0.93
  First Hospitalization, RR: 0.92
  Non-disabling Stroke Modified Rankin 0-2, RR: 0.87
  Stroke or systemic embolism, RR: 0.91
  Stroke, Hemorrhagic, RR: 0.31
  Stroke, RR: 0.92
  Stroke, systemic embolism, pulmonary embolism, myocardial infarction death or major bleed (net benefit), RR: 0.92
[3]; 150 mg b.i.d.
  Rate of hemorrhagic stroke: 0.10 % per year
  Stroke, systemic embolism, pulmonary embolism, myocardial infarction death or major bleed (net benefit), Rate: 7.22 /100 Person Years
[3]; 150 mg vs. 110 mg
  Stroke, Ischemic or Unspecified, RR: 0.68
  Stroke, RR: 0.70
  Stroke, systemic embolism, pulmonary embolism, myocardial infarction death or major bleed (net benefit), RR: 0.98
[3]; 150 mg vs. Warfarin
  First Hospitalization, RR: 0.97
  Major Bleeding, Other Major, RR: 1.07
  Non-disabling Stroke Modified Rankin 0-2, RR: 0.62
  Stroke or systemic embolism, RR: 0.66
  Stroke, Hemorrhagic, RR: 0.26
  Stroke, Ischemic or Unspecified, RR: 0.76
  Stroke, RR: 0.64
  Stroke, systemic embolism, pulmonary embolism, myocardial infarction death or major bleed (net benefit), RR: 0.90
[3]; in vivo
  Hepatotoxicity in serial measurement of liver function tests: no evidence of hepatotoxicity
